ChEMBL document CHEMBL1137049 (Bioorg Med Chem Lett, 2004)
pEC50, pKi: −log10 of the molar value.

Tests used:
Histamine H3 receptor [1] = biological target: T1, Histamine H3 receptor (Homo sapiens, UniProt Q9Y5N1); assay: Effective concentration required against human histamine H3 receptor was determined by the inhibition of the cAMP stimulated beta-galactosidase transcription in SK-N-MC cells; format: cell-based
Histamine H3 receptor [2] = biological target: T1, Histamine H3 receptor; assay: Intrinsic activity against human histamine H3 receptor
Histamine H3 receptor [3] = biological target: T1, Histamine H3 receptor; assay: Binding affinity towards human histamine H3 receptor was determined by [3H]Na-methylhistamine binding to SK-N-MC cell membranes
Histamine H4 receptor = Histamine H4 receptor (Homo sapiens, UniProt Q9H3N8); assay: Binding affinity towards human histamine H4 receptor was determined by [3H]Na-methylhistamine binding to SK-N-MC cell membranes
Chain of Histamine H4 receptor (Q9H3N8 whole entry): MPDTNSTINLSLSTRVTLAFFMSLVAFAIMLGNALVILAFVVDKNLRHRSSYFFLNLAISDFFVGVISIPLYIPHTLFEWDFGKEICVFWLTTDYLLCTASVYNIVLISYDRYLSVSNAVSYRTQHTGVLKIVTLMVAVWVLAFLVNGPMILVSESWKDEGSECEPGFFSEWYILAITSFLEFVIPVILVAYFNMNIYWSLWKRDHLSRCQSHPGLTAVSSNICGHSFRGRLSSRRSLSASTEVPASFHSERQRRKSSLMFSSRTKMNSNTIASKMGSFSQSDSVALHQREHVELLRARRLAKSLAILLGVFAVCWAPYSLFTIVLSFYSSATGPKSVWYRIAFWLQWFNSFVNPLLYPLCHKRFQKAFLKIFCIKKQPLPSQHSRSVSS

T1 sequence (Q9Y5N1 whole entry): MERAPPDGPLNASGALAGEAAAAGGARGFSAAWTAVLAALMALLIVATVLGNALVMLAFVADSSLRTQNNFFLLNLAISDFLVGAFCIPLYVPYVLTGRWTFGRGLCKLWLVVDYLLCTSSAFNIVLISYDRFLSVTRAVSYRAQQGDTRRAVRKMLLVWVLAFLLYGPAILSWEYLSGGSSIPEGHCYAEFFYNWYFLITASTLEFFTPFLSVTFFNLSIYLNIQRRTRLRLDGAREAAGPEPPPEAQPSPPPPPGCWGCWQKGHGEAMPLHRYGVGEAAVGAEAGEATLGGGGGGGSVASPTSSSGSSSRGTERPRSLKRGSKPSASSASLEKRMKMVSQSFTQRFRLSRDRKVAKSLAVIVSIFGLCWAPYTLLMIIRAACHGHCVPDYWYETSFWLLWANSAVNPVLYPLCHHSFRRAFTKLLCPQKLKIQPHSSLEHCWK

Row | Structure (SMILES) | pEC50 (Histamine H3 receptor [1]) | Intrinsic activity (Histamine H3 receptor [2]) | pKi (Histamine H3 receptor [3]) | pKi (Histamine H4 receptor)
1 | CN1CCN(C(=O)c2cc3cc(I)ccc3[nH]2)CC1 | 5.50 | -0.8 | 5.60 | 7.20
2 | CN1CCN(C(=O)c2nc3cc(Cl)ccc3[nH]2)CC1 | 5.50 |  | 5.40 | 7.10
3 | CN(C)CCNC(=O)c1cc2cc(Cl)ccc2[nH]1 |  | 0 | 5.30 | 5.50
4 | CN1CCN(NC(=O)c2cc3cc(Cl)ccc3[nH]2)CC1 |  |  |  | 4.60
5 | CN1CCC(C(O)c2cc3cc(Cl)ccc3[nH]2)CC1 (stereo not drawn) | 6.00 | -0.5 | 5.80 | 5.30
6 | CN(C)CCN(C)C(=O)c1nc2cc(Cl)ccc2[nH]1 |  |  |  | 4.60
7 | CN1CCN(C(=O)Nc2nc3cc(Cl)ccc3[nH]2)CC1 |  |  |  | 4.70
8 | CN(C)CCNC(=O)c1nc2cc(Cl)ccc2[nH]1 | 5.50 | -0.5 | 4.60 | 6.00
9 | CN(C)CCCNC(=O)c1cc2cc(Cl)ccc2[nH]1 |  |  |  | < 4.00
10 | O=C(c1cc2cc(Cl)ccc2[nH]1)N1CCCCC1 | 5.50 | -0.6 | 5.20 | 5.10
11 | O=C(c1cc2cc(Cl)ccc2[nH]1)N1CCOCC1 |  |  |  | < 4.00
12 | CC(=O)Nc1nc2cc(Cl)ccc2[nH]1 |  |  |  | < 4.00
13 | CN1CCN(C(=O)c2cc3cc(Br)ccc3[nH]2)CC1 | 5.80 | -0.7 | 5.50 | 7.50
14 | CN(C)CCN(C)C(=O)c1cc2cc(Cl)ccc2[nH]1 |  |  |  | 4.60
15 | CN1CCN(NC(=O)c2nc3cc(Cl)ccc3[nH]2)CC1 |  |  |  | < 4.00
16 | CN1CCN(C(=O)c2nc3ccc(Cl)cc3[nH]2)CC1 |  | -1 |  | 
17 | CN1CCN(C(=O)c2cc3cc(Cl)ccc3[nH]2)CC1 [JNJ-7777120] | 6.00 | -0.7 | 5.70 | 
18 | CN1CCC(C(=O)c2cc3cc(Cl)ccc3[nH]2)CC1 | 6.00 | -0.5 | 5.50 | 6.70
19 | CN(C)c1cccc(-c2nc3cc(Cl)ccc3[nH]2)c1 |  |  |  | < 4.00
